# According to paper PMC11968843, “Sulphostin-inspired N-phosphonopiperidones as selective covalent DPP8 and DPP9 inhibitors” (Nature Communications, 2025):
# “And” between values parts separate entries of the source, which are not always exact repeats. Identical values can stand only once. Like-named read-outs stand apart in the source and are kept apart here.
# How the values were obtained:
# DPP4 [1] = target: T1, DPP4 (Homo sapiens, UniProt P27487); test: biochemical; assay type: biochemical; details: for DPP4 activity [%]: replicates
# T1 construct: purchased Proteros Biostructures GmbH, Germany
# T1 sequence (P27487 whole entry): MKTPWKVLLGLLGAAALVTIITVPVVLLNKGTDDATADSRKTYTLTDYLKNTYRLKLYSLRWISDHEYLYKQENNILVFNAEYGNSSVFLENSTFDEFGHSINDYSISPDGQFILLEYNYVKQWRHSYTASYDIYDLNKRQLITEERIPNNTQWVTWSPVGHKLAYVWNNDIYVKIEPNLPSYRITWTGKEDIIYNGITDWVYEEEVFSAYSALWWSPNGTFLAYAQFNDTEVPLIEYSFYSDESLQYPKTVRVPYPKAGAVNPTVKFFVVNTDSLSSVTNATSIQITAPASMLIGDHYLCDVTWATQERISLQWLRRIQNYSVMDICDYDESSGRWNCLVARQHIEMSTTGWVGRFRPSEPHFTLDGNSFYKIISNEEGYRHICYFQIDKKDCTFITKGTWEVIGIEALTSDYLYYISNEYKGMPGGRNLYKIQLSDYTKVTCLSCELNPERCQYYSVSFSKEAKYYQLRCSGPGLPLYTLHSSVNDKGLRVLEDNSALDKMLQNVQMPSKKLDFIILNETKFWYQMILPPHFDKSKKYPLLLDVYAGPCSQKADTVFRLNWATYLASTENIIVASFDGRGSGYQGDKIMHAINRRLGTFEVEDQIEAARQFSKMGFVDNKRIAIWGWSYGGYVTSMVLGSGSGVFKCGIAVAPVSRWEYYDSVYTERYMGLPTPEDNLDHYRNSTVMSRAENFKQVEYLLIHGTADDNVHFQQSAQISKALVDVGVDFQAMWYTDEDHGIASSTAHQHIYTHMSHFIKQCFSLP
# Experimental: (§1) Enzyme activity of DPP4, DPP8, DPP9 (Proteros Biostructures GmbH, Germany) and PREP (Sigma Aldrich, USA) was determined by measuring the initial velocity of AMC release from the fluorogenic substrate GP-AMC (Sigma Aldrich, USA) using a Tecan Spark® 10 M multimode microplate reader (Tecan Group Ltd., Switzerland) in activity buffer (20 mM HEPES/KOH pH 7.3, 110 mM potassium acetate, 2 mM Mg acetate, 0.5 mM EGTA, 0.02% Tween 20, supplemented with 1 mM DTT) and a final volume of 20 μL for maximal 60 min at 30 °C. Prior to activity measurement, 10 nM enzyme was incubated for 45 min at 30 °C and gentle shaking with the inhibitor compounds in concentrations ranging from 0 to 100 μM. The compounds were dissolved in DMSO and diluted in activity buffer (final DMSO concentration: 1%). […] IC50 values were calculated using Graph-Pad Prism v10.2.3 using the equation: [Inhibitor] vs. response—Variable slope (four parameters). All measurements were performed in triplicates and error bars represent standard errors of the fit.
# DPP8 [2] = target: T2, DPP8 (Homo sapiens, UniProt Q6V1X1); test: biochemical; assay type: biochemical
# T2 construct: purchased Proteros Biostructures GmbH, Germany
# T2 sequence (Q6V1X1 whole entry): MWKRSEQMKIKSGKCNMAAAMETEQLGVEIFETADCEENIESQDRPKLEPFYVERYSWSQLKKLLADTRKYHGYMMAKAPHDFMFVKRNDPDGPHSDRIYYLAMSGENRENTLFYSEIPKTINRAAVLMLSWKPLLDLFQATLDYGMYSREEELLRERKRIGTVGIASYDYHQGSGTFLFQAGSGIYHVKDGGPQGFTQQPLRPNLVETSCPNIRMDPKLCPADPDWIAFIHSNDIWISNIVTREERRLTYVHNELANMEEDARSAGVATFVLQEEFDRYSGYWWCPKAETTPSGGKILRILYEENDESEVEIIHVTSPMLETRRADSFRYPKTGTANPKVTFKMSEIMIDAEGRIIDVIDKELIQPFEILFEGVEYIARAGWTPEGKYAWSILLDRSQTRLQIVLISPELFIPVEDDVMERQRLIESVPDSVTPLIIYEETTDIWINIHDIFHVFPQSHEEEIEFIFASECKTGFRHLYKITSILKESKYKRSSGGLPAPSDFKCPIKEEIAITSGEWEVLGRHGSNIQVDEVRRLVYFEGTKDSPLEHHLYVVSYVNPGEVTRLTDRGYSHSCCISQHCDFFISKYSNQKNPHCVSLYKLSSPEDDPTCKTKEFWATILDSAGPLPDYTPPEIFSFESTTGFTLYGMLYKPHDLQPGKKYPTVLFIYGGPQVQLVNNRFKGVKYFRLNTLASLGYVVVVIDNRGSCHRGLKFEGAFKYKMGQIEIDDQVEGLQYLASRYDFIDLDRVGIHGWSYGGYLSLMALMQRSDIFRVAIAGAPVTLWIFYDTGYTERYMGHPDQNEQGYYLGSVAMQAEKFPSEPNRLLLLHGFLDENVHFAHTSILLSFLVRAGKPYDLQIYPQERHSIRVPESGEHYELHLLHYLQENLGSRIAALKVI
# Experimental: as §1
# DPP4 [3] = target: T1, DPP4; assay type: biochemical
# Experimental: To calculate the reaction rate of covalent bond formation between DPP proteins and inhibitor, kinact, KI and kapp was determined as previously described[30],[51]. […] Enzyme activity was measured for a maximum of 120 min at 30 °C, and fluorescence intensities were then plotted against time. Data was fitted to the following equation: Y=(vi/kobs)*(1−exp(−kobs*X)) using Graph-Pad Prism v10.2.3. The obtained pseudo-first-order rate constant was used to determine the maximum enzyme inhibition rate (kinact) and binding affinity (KI) by fitting the plot of kobs against inhibitor concentration to the following equation: Y=kinact/1+(KI/[I]) . The efficiency of covalent bond formation (kapp) was calculated by the ratio of kinact/KI. All measurements were performed in triplicates and error bars represent standard errors of the fit.
# DPP8 [4] = target: T2, DPP8; test: Time-dependent DPP8 inhibition kinetics (kobs, KI, kinact, kapp); assay type: biochemical
# Experimental: (§2) To calculate the reaction rate of covalent bond formation between DPP proteins and inhibitor, kinact, KI and kapp was determined as previously described[30],[51]. Therefore, 250 µM GP-AMC was added simultaneously with a serial dilution of the inhibitor to 10 nM enzyme. Enzyme activity was measured for a maximum of 120 min at 30 °C, and fluorescence intensities were then plotted against time. Data was fitted to the following equation: Y=(vi/kobs)*(1−exp(−kobs*X)) using Graph-Pad Prism v10.2.3. The obtained pseudo-first-order rate constant was used to determine the maximum enzyme inhibition rate (kinact) and binding affinity (KI) by fitting the plot of kobs against inhibitor concentration to the following equation: Y=kinact/1+(KI/[I]) . The efficiency of covalent bond formation (kapp) was calculated by the ratio of kinact/KI. All measurements were performed in triplicates and error bars represent standard errors of the fit.
# [5] = target: T3, HEK293 cell lysates (proteome-wide targets of probe 9) (Homo sapiens, UniProt P04406); test: Competitive ABPP / direct target identification with alkyne probe 9 in HEK293 cell lysates; assay type: binding, H. sapiens; details: protein GAPDH
# T3 construct: endogenous in cells; host or cells: HEK293 cell lysate
# T3 sequence (P04406 whole entry): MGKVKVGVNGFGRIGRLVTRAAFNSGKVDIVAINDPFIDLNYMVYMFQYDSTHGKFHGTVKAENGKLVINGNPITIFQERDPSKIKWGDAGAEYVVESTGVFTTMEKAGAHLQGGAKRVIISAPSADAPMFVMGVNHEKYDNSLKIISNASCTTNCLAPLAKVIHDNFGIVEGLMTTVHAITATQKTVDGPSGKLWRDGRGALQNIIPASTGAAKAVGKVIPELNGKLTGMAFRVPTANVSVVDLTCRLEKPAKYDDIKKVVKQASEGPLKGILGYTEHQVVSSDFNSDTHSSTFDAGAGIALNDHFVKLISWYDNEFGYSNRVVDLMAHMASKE
# [6] = target: T4, HEK293 cell lysates (proteome-wide targets of probe 9) (Homo sapiens, UniProt P14618); test: as above; assay type: binding, H. sapiens; details: protein PKM
# T4 construct: endogenous in cells; host or cells: HEK293 cell lysate
# T4 sequence (P14618 whole entry): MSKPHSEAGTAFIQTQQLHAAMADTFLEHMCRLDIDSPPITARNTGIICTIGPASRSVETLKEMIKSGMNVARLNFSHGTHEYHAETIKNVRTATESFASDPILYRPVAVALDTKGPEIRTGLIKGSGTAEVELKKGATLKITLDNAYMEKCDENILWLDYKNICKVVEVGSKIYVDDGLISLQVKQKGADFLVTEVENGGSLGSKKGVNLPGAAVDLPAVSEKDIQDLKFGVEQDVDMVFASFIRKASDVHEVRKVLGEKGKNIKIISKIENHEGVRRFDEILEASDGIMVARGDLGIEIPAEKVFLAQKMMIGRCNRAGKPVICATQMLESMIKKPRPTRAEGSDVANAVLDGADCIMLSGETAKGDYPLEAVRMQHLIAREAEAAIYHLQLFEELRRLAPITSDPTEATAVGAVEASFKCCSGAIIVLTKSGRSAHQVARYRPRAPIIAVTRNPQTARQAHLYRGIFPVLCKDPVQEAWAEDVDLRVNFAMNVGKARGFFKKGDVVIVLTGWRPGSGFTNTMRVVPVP
# [7] = target: T5, HEK293 cell lysates (proteome-wide targets of probe 9) (Homo sapiens, UniProt P61978); test: as above; assay type: binding, H. sapiens; details: protein HNRNPK
# T5 construct: endogenous in cells; host or cells: HEK293 cell lysate
# [8] = target: T6, HEK293 cell lysates (proteome-wide targets of probe 9) (Homo sapiens, UniProt Q12802); test: as above; assay type: binding, H. sapiens; details: protein AKAP13
# T6 construct: endogenous in cells; host or cells: HEK293 cell lysate
# [9] = target: T7, HEK293 cell lysates (proteome-wide targets of probe 9) (Homo sapiens, UniProt Q7Z5P9); test: as above; assay type: binding, H. sapiens; details: protein MUC19
# T7 construct: endogenous in cells; host or cells: HEK293 cell lysate
# DPP9 [10] = target: T8, DPP9 (Homo sapiens, UniProt Q86TI2); test: biochemical; assay type: biochemical; parameters: purchased Proteros Biostructures GmbH, Germany; details: for DPP9 activity [%]: replicates
# T8 sequence (Q86TI2 whole entry): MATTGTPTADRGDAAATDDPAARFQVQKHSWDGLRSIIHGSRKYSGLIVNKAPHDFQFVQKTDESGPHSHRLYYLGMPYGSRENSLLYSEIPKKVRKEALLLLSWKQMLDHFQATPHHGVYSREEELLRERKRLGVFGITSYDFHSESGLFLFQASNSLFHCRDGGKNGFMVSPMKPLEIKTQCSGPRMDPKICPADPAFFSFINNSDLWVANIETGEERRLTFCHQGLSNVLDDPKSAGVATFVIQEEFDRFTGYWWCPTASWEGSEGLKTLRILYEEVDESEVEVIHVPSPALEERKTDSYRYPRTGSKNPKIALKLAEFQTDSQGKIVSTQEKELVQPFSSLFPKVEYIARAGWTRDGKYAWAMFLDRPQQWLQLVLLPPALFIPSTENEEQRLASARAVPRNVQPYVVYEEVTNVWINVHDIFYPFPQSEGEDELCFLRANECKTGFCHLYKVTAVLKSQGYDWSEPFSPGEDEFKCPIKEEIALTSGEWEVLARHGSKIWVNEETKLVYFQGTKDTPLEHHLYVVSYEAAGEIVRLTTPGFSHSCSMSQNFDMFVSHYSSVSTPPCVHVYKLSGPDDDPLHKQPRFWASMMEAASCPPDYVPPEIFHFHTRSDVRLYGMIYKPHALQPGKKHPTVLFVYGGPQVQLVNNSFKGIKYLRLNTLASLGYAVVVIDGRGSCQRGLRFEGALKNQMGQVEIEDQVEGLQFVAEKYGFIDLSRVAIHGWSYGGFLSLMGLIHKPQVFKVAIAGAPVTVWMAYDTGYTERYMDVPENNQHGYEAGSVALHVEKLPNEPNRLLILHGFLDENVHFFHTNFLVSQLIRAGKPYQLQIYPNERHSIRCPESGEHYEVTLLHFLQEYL
# Experimental: as §1
# DPP9 [11] = target: T8, DPP9; test: Time-dependent DPP9 inhibition kinetics (kobs, KI, kinact, kapp); assay type: biochemical; parameters: purchased Proteros Biostructures GmbH, Germany
# Experimental: as §2
# [12] = irreversible inhibition, fit of kobs vs inhibitor concentration
compound,measurement,setting,value
CCCCCc1ccc(SCCP(=O)(OCC)N2CCC[C@H](N)C2=O)cc1.O=C(O)C(F)(F)F (some centres unmarked) [Compound 16],IC50,"DPP4 [1]; GP-AMC 250 µM, 10 nM enzyme, 45 min pre-incubation at 30 °C, read-out: IC50 DPP4",16.1 µM
same,DPP4 activity [%],DPP4 [1]; c 15.625 nM,93.2714% and 107.175% and 106.746%
same,DPP4 activity [%],DPP4 [1]; c 31.25 nM,98.0992% and 97.1086% and 101.856%
same,DPP4 activity [%],DPP4 [1]; c 62.5 nM,102.891% and 92.9769% and 100.41%
same,DPP4 activity [%],DPP4 [1]; c 250 nM,99.4378% and 98.9828% and 107.906%
same,DPP4 activity [%],DPP4 [1]; c 500 nM,104.087% and 100.437% and 100.482%
same,DPP4 activity [%],DPP4 [1]; c 1000 nM,94.3422% and 97.3674% and 95.7968%
same,DPP4 activity [%],DPP4 [1]; c 1562.5 nM,95.896% and 97.1752% and 96.7627%
same,DPP4 activity [%],DPP4 [1]; c 3125 nM,92.5869% and 89.2118% and 84.6321%
same,DPP4 activity [%],DPP4 [1]; c 6250 nM,85.4573% and 71.7259% and 79.6149%
same,DPP4 activity [%],DPP4 [1]; c 25000 nM,32.8097% and 29.6905% and 29.938%
same,DPP4 activity [%],DPP4 [1]; c 50000 nM,6.082% and 4.679% and 4.407%
same,DPP4 activity [%],DPP4 [1]; c 100000 nM,0.3548% and 1.386% and 0.7592%
same,IC50,"DPP8 [2]; GP-AMC 250 µM, 10 nM enzyme, 45 min pre-incubation at 30 °C, read-out: IC50 DPP8",0.014 ± 0.001 µM
same,DPP8 activity [%],"DPP8 [2]; c 15.625 nM, replicates",42.4788% and 41.4194% and 46.9279%
same,DPP8 activity [%],"DPP8 [2]; c 25 nM, replicates",28.7129% and 21.6298% and 23.9147%
same,DPP8 activity [%],"DPP8 [2]; c 31.25 nM, replicates",25% and 29.6611% and 26.8008%
same,DPP8 activity [%],"DPP8 [2]; c 50 nM, replicates",11.5004% and 14.9276% and 11.5003%
same,DPP8 activity [%],"DPP8 [2]; c 62.5 nM, replicates",11.5466% and 15.9958% and 12.9237%
same,DPP8 activity [%],"DPP8 [2]; c 100 nM, replicates",5.331% and 3.808% and 3.884%
same,DPP8 activity [%],"DPP8 [2]; c 250 nM, replicates",4.449% (2×) and 5.085%
same,DPP8 activity [%],"DPP8 [2]; c 500 nM, replicates",3.39% and 4.449% and 3.1779%
same,DPP8 activity [%],"DPP8 [2]; c 1000 nM, replicates",3.496% and 1.907% and 2.6483%
same,DPP8 activity [%],"DPP8 [2]; c = 1.5625 nM inhibitor, individual replicates",85.6817% and 91.6222% and 85.0724%
same,DPP8 activity [%],"DPP8 [2]; c = 3.125 nM inhibitor, individual replicates",102.513% and 82.8637% and 92.1555%
same,DPP8 activity [%],"DPP8 [2]; c = 6.25 nM inhibitor, individual replicates",73.0388% and 69.9924% and 75.3236%
same,DPP8 vs. DPP9 selectivity,DPP8 [2]; from IC50 values,~ 21 fold
same,selectivity of DPP8 inhibition over DPP4,DPP8 [2]; from IC50 values,~ 1154 fold
same,kobs DPP4,DPP4 [3]; c 250 µM,0.003317 s⁻¹
same,kobs DPP4,DPP4 [3]; c 1000 µM,0.006797 s⁻¹
same,kinact DPP4,DPP4 [3]; [12],0.01027 s⁻¹
same,kapp DPP4,DPP4 [3]; ratio kinact/KI,20 M⁻¹ s⁻¹
same,KI (inactivation),"DPP4 [3]; source data, read-out: KI [M] best fit DPP4",0.000512 M
same,kobs DPP8,DPP8 [4]; c 0.003125 µM,7.927e-05 s⁻¹
same,kobs DPP8,DPP8 [4]; c 0.025 µM,0.0001486 s⁻¹
same,kinact DPP8,DPP8 [4]; [12],0.00018 s⁻¹
same,KI (inactivation),"DPP8 [4]; irreversible inhibition, fit of kobs vs inhibitor concentration, read-out: KI DPP8",4e-09 ± 2e-09 M
same,KI (inactivation),"DPP8 [4]; source data, read-out: KI [M] best fit DPP8",3.53e-09 M
same,Log2-fold change (16/9),[5],0.4935
same,Log2-fold change (16/9),[6],0.00104
same,Log2-fold change (16/9),[7],-0.758
same,Log2-fold change (16/9),[8],0.6936
same,Log2-fold change (16/9),[9],0.8224
same,IC50,"DPP9 [10]; GP-AMC 250 µM, 10 nM enzyme, 45 min pre-incubation at 30 °C, read-out: IC50 DPP9",0.298 ± 0.021 µM
same,DPP9 activity [%],DPP9 [10]; c 15.625 nM,90.8881% and 85.3617% and 82.8729%
same,DPP9 activity [%],DPP9 [10]; c 31.25 nM,91.5419% and 83.379% and 89.0951%
same,DPP9 activity [%],DPP9 [10]; c 62.5 nM,100.148% and 96.4776% and 87.1335%
same,DPP9 activity [%],DPP9 [10]; c 156.25 nM,75.5857% and 64.6658% and 62.3826%
same,DPP9 activity [%],DPP9 [10]; c 250 nM,60.7045% and 50.2004% and 47.0576%
same,DPP9 activity [%],DPP9 [10]; c 312.5 nM,47.5512% and 45.1489% and 49.4375%
same,DPP9 activity [%],DPP9 [10]; c 500 nM,25.3111% and 25.3533% and 24.7205%
same,DPP9 activity [%],DPP9 [10]; c 625 nM,28.2131% and 30.5361% and 23.7856%
same,DPP9 activity [%],DPP9 [10]; c 1000 nM,10.0823% and 10.3775% and 12.2759%
same,DPP9 activity [%],DPP9 [10]; c 2500 nM,5.122% and 5.281% and 6.135%
same,DPP9 activity [%],DPP9 [10]; c 5000 nM,3.4348% and 3.693% and 4.11%
same,DPP9 activity [%],DPP9 [10]; c 10000 nM,2.0053% and 1.966% and 1.707%
same,kobs DPP9,DPP9 [11]; c 0.0625 µM,0.0001274 s⁻¹
same,kobs DPP9,DPP9 [11]; c 0.25 µM,0.0002545 s⁻¹
same,kobs DPP9,DPP9 [11]; c 1 µM,0.0004155 s⁻¹
same,kinact DPP9,DPP9 [11]; [12],0.0005 ± 0.00007 s⁻¹
same,KI (inactivation),"DPP9 [11]; irreversible inhibition, fit of kobs vs inhibitor concentration, read-out: KI DPP9",2.16e-07 ± 9e-08 M
same,KI (inactivation),"DPP9 [11]; source data, read-out: KI [M] best fit DPP9",2.16e-07 M
